Data from patent US9884866B2, “Immunomodulators and immunomodulator conjugates” (REGENTS OF THE UNIVERSITY OF MINNESOTA, priority 2014, dated 2018).

System: Bone marrow derived dendritic cells (BMDC)
Experiment: Measurement of proinflammatory cytokines with cytometric bead assay in BMDC
Assay type: cell-based, C57BL/6 mice
Details: BMDC stimulated with 30 μM of compound for 3 days; supernatant
Experimental: Measurement of Proimflammatory Cytokines with Cytometric Bead Assay:
Bone marrow derived dendritic cells (BMDC) were generated by isolating a single cell suspension of marrow from the femur of C57BL/6 mice (6-8 weeks of age). Red blood cells were lysed with 0.83% NH4Cl, 0.1% KHCO3 and […] cells were seeded in each of well of a 6 well plate in complete RPMI media (Invitrogen, Grand Island, N.Y.), supplemented with mouse 20 ng/ml Granulocyte-Macrophage Colony Stimulating Factor (PeproTech, Rocky Hill, N.J.). After 6 days after culture, BMDC were stimulated with 30 μM of compound for 3 days. 25 μL of supernatant was then removed and assayed for TNFα, IL-12p40, IL-1β and IL-10 using a flow cytometric bead array according to the manufacturers' instructions (BD Bioscience, San Jose, Calif.). Controls were performed using the addition of media and carrier with no drug. Flow cytometry was performed on a FACS canto-II (BD Bioscience) and data were analyzed using Flowjo software (Tree Star, Inc. Ashland, Oreg.).

Row | SMILES | IL-1b [pg/mL] | IL-10 [pg/mL] | IL-12/23p40 [pg/mL] | TNF [pg/mL]
1 | CCCCc1nc2c(N)nc3cc(NS(=O)(=O)c4ccccc4)ccc3c2n1CC(C)O (centres unmarked) [Compound 543] | 128 ± 13 | 151 ± 24 | 57 ± 8 | 725 ± 77
2 | CCCCc1nc2c(N)nc3cc(S(=O)(=O)c4ccccc4)ccc3c2n1CC(C)O (centres unmarked) [Compound 548, 4-amino-2-butyl-1-(2-hydroxypropyl)-7-benzenesulphonyl-1H-imidazo[4,5-c]quinoline] | 19 ± 2 | 29 ± 2 | 176 ± 25 | 1456 ± 111
